{"source": "patent US10214511B2", "about": "“Quinazolines as potassium ion channel inhibitors” (Bristol-Myers Squibb Company, priority 2009, dated 2019)", "key": {"Kv 1.5": {"molecular_target": "Kv 1.5 (Homo sapiens (Human), UniProt P22460)", "sequence (P22460 whole entry)": "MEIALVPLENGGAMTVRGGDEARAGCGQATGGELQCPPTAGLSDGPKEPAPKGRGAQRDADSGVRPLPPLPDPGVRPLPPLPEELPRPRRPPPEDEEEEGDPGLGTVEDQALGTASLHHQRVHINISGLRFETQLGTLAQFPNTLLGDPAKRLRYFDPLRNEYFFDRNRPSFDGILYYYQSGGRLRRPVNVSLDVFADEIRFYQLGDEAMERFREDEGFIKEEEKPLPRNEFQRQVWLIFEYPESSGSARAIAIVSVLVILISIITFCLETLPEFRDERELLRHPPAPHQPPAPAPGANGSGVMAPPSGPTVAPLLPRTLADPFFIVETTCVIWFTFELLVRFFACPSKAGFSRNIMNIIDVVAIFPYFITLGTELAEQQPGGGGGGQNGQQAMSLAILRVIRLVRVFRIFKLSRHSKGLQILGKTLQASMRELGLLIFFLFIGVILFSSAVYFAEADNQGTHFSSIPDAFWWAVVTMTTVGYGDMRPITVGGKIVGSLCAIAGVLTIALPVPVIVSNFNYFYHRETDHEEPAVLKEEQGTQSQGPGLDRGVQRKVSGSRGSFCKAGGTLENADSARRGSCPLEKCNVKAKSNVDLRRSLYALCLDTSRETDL", "assay": "Kv1.5 (IKur) inhibition assay", "assay_type": "cell-based", "description": "Assays to determine the degree of activity of a compound as an IKur inhibitor are well known in the art and are described in references such as J. Gen. Physiol., 101(4):513-543 (April 1993), and Br. J. Pharmacol., 115(2):267-274 (May 1995).\nAssays to determine the degree of activity of a compound as an inhibitor of other members of the Kv1 subfamily are also well known in the art. For example, inhibition of Kv1.1, Kv1.2 and Kv1.3 can be measured using procedures described by Grissmer, S. et al., Mol. Pharmacol., 45(6):1227-1234 (June 1994); inhibition of Kv1.4 can be measured using procedures described by Petersen, K. R. et al., Pflugers Arch., 437(3):381-392 (February 1999); inhibition of Kv1.6 can be measured using procedures described by Bowlby, M. R. et al., J. Neurophysiol. 73(6):2221-2229 (June 1995); and inhibition of Kv1.7 can be measured using procedures described by Kalman, K. et al., J. Biol. Chem., 273(10):5851-5857 (Mar. 6, 1998).\nCompounds of the present invention were tested in one of the assays described immediately above and the results shown in Table 2 below were obtained."}, "IRAK-4": {"molecular_target": "IRAK-4 (Homo sapiens (Human), UniProt Q9NWZ3)", "assay": "Caliper Kinase Assay", "assay_type": "biochemical", "conditions": "ATP at Km, peptide 1.5 uM; read-out: LLE IRAK-4 (IC50)", "description": "(§1) In addition, compounds of the present invention, such as particular compounds disclosed in the preceding examples, were evaluated for their effectiveness as inhibitors of kinase receptor activity.\n(§2) The analyses were performed in U-bottom 384-well plates. The final assay volume was 30 μl prepared from 15 μl additions of enzyme and substrates (fluoresceinated peptide and ATP) and test compounds in assay buffer (20 mM HEPES pH 7.4, 10 mM MgCl2, 0.015% Brij35 and 4 mM DTT). The reaction was initiated by the combination of purified protein kinase with substrates and test compounds. The reaction was incubated at room temperature for 60 min. and terminated by adding 30 μl of 35 mM EDTA to each sample. The reaction mixture was analyzed on the Caliper LABCHIP® 3000 (Caliper, Hopkinton, Mass.) by electrophoretic separation of the fluorescent substrate and phosphorylated product. Inhibition data were calculated by comparison to no enzyme control reactions for 100% inhibition and vehicle-only reactions for 0% inhibition. The ATP was used at a final concentration equivalent to the Km and the peptide substrate concentration was 1.5 μM. […] Compounds were dissolved at 10 mM in dimethylsulfoxide (DMSO) and evaluated at eleven concentrations. IC50 values were derived by non-linear regression analysis."}, "GSK3B": {"molecular_target": "GSK3B (Homo sapiens (Human), UniProt P49841)", "assay": "Caliper Kinase Assay", "assay_type": "biochemical", "conditions": "ATP at Km, peptide 1.5 uM; read-out: LLE GSK3B (IC50)", "description": "as §1, §2"}, "TPL2": {"molecular_target": "TPL2 (Homo sapiens (Human), UniProt P41279)", "sequence (P41279 whole entry, species assumed)": "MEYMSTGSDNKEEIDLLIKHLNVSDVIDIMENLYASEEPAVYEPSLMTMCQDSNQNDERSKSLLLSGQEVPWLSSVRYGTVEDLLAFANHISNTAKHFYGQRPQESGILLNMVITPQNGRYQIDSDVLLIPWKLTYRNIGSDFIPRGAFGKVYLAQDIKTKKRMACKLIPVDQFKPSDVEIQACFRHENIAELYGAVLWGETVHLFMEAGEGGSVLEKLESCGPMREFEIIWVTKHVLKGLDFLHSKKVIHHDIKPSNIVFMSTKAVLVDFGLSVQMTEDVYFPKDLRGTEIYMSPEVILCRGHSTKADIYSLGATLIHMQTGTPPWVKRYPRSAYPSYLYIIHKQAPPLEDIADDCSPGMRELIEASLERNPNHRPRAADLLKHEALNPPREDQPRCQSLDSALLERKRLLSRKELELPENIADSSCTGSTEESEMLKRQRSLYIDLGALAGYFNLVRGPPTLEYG", "assay": "Caliper Kinase Assay", "assay_type": "biochemical", "conditions": "ATP at Km, peptide 1.5 uM; read-out: LLE_TPL2 CAL (IC50)", "description": "as §1, §2"}, "JAK3": {"molecular_target": "JAK3 (Homo sapiens (Human), UniProt P52333)", "assay": "Caliper Kinase Assay", "assay_type": "biochemical", "conditions": "ATP at Km, peptide 1.5 uM; read-out: LLE_JAK3 (IC50)"}, "BTK": {"molecular_target": "BTK (Homo sapiens (Human), UniProt Q06187)", "sequence (Q06187 whole entry, species assumed)": "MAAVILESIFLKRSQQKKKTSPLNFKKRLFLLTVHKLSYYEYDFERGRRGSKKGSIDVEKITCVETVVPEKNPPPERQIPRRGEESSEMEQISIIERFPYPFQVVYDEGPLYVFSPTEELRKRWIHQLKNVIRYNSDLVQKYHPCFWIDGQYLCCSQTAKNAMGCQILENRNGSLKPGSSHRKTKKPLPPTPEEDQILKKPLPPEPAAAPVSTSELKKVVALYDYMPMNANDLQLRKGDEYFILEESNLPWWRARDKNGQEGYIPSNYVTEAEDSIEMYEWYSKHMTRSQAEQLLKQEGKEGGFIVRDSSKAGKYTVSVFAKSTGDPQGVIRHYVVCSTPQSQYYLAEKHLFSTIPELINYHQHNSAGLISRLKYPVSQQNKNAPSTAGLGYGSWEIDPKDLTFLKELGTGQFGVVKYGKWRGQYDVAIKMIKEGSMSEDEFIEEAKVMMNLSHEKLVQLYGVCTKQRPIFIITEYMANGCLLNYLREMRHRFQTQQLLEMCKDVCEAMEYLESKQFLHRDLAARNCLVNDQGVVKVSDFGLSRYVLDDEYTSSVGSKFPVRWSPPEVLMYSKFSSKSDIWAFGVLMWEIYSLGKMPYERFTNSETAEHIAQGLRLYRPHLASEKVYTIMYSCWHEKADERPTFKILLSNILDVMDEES", "assay": "Caliper Kinase Assay", "assay_type": "biochemical", "conditions": "ATP at Km, peptide 1.5 uM; read-out: LLE_BTK (IC50)"}, "CK2A2": {"molecular_target": "CK2A2 (Homo sapiens (Human), UniProt P19784)", "sequence (P19784 whole entry, species assumed)": "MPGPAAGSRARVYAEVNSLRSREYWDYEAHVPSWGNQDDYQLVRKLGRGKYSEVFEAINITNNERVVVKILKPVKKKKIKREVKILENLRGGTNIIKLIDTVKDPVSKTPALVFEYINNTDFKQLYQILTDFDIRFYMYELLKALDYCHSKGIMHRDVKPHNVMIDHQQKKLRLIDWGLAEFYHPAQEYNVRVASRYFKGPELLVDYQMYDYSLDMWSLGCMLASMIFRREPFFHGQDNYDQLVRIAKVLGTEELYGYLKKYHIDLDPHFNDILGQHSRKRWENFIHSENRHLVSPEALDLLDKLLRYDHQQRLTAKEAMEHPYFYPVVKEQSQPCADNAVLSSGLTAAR", "assay": "Caliper Kinase Assay", "assay_type": "biochemical", "conditions": "ATP at Km, peptide 1.5 uM; read-out: LLE_CK2A2 (IC50)"}, "IGF1R": {"molecular_target": "IGF1R (Homo sapiens (Human), UniProt P08069)", "sequence (P08069 31-1367, species assumed)": "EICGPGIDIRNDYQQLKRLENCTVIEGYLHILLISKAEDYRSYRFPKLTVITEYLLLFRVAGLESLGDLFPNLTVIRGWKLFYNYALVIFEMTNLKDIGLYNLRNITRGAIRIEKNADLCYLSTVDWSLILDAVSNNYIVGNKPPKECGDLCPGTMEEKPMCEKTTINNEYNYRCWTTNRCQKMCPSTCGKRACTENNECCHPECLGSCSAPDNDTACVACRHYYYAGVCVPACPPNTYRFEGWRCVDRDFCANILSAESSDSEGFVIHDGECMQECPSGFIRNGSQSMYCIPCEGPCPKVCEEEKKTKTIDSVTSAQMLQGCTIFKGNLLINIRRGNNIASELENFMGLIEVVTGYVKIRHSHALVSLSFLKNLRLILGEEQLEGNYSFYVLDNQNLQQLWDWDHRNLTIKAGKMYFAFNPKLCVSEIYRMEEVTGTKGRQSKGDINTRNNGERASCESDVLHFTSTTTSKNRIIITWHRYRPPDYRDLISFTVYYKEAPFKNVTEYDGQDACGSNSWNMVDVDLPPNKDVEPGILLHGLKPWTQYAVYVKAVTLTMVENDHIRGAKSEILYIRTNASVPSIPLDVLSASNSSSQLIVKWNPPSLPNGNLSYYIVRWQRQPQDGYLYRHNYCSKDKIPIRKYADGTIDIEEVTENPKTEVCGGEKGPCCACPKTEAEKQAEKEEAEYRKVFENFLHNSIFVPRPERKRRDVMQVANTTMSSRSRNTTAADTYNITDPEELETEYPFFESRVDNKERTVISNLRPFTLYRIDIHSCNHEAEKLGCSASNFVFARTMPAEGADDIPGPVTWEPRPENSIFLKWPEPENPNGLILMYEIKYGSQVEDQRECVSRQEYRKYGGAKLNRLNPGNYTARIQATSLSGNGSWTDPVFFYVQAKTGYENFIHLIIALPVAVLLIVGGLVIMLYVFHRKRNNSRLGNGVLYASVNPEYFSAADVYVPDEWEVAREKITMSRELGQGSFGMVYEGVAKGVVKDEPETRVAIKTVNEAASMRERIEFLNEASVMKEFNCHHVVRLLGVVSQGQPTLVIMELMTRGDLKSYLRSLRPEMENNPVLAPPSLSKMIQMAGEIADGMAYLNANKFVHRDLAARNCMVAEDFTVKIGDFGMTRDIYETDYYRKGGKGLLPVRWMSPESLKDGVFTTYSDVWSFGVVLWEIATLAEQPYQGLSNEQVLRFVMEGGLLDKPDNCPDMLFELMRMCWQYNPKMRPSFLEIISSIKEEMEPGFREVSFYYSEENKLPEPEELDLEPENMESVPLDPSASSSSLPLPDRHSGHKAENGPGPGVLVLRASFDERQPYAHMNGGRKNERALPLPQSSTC", "assay": "Caliper Kinase Assay", "assay_type": "biochemical", "conditions": "ATP at Km, peptide 1.5 uM", "description": "(§3) IC50 values were derived by non-linear regression analysis."}, "ABL1": {"molecular_target": "ABL1 (Homo sapiens (Human), UniProt P00519)", "assay": "Caliper Kinase Assay", "assay_type": "biochemical", "conditions": "read-out: LLE_ABL1 (% INH, 50 uM)", "description": "as §3"}, "JAK2": {"molecular_target": "JAK2 (Homo sapiens (Human), UniProt O60674)", "sequence (O60674 whole entry, species assumed)": "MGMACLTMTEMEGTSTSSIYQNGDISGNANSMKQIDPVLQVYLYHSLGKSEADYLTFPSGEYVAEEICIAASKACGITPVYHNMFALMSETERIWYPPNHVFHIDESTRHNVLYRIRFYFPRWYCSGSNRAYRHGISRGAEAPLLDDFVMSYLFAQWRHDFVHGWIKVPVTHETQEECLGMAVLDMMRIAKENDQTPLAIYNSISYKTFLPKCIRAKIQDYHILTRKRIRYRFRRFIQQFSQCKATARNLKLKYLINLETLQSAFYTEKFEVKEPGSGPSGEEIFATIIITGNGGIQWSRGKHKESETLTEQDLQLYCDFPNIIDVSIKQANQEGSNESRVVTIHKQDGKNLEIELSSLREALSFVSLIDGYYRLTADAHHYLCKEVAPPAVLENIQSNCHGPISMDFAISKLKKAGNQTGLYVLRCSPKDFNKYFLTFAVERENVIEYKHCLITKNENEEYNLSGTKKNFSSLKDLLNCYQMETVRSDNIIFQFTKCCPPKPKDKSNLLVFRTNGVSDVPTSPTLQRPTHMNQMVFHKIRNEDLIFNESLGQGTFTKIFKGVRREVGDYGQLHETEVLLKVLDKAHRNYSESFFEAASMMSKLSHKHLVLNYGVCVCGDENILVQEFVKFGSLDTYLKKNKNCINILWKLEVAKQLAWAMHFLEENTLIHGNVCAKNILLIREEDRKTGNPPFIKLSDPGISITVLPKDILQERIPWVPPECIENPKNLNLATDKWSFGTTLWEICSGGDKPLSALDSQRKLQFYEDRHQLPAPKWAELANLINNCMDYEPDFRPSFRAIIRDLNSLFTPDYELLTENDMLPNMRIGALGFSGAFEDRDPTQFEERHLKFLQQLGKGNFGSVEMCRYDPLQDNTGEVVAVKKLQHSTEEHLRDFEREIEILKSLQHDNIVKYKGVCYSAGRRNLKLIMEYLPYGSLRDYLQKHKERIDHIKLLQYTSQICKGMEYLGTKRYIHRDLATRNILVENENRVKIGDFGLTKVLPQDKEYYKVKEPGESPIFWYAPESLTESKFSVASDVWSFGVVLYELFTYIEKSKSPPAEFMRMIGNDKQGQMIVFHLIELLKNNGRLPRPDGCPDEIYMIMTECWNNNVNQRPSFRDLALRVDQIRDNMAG", "assay": "Caliper Kinase Assay", "assay_type": "biochemical", "conditions": "ATP at Km, peptide 1.5 uM; read-out: LLE_JAK2 (IC50)", "description": "as §3"}, "PIM1": {"molecular_target": "PIM1 (Homo sapiens (Human), UniProt P11309)", "sequence (P11309 whole entry, species assumed)": "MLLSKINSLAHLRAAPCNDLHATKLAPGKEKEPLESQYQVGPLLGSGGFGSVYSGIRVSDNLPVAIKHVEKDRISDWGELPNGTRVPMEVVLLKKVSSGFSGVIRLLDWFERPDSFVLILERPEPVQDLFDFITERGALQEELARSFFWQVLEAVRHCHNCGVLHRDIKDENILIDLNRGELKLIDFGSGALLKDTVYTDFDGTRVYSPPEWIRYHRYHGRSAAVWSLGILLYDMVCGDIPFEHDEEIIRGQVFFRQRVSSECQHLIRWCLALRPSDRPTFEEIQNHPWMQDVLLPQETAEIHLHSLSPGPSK", "assay": "Caliper Kinase Assay", "assay_type": "biochemical", "conditions": "ATP at Km, peptide 1.5 uM", "description": "as §3"}, "Flt3": {"molecular_target": "Flt3 (Homo sapiens (Human), UniProt P36888)", "assay": "Caliper Kinase Assay", "assay_type": "biochemical", "conditions": "ATP at Km, peptide 1.5 uM; read-out: LLE Flt3 (IC50)", "description": "as §3"}, "[1]": {"assay": "Brain penetration across species", "assay_type": "in vivo"}, "TAK1": {"molecular_target": "TAK1 (Homo sapiens (Human), UniProt O43318)", "assay": "Caliper Kinase Assay", "assay_type": "biochemical", "conditions": "ATP at Km, peptide 1.5 uM; read-out: LLE_TAK1 (IC50)", "description": "as §3"}}, "note": "Where two headings read alike, the source gives them in different places."}
{"smiles": "Clc1nc(Nc2nccs2)c2c(-c3ccccc3)cccc2n1", "note": "[Example 38]", "values": [{"measurement": "inhibition at 0.3 µM", "setting": "Kv 1.5", "value": 61.3, "unit": "%"}]}
{"smiles": "Fc1ccc(CNc2nc(Cl)nc3cccc(-c4ccccc4)c23)nc1", "note": "[Example 110]", "values": [{"measurement": "inhibition at 0.3 µM", "setting": "Kv 1.5", "value": 51.8, "unit": "%"}]}
{"smiles": "Clc1nc(NCc2ccccc2)c2c(-c3ccccc3)cccc2n1", "note": "[Example 42]", "values": [{"measurement": "inhibition at 0.3 µM", "setting": "Kv 1.5", "value": 96.4, "unit": "%"}]}
{"smiles": "Clc1nc(NCc2ccccn2)c2c(-c3ccccc3)cccc2n1", "note": "[Example 19]", "values": [{"measurement": "IC50", "setting": "IRAK-4", "value": 18.7, "unit": "µM"}, {"measurement": "IC50", "setting": "GSK3B", "value": 5.15, "unit": "µM"}, {"measurement": "IC50", "setting": "TPL2", "value": 11.9, "unit": "µM"}, {"measurement": "IC50", "setting": "JAK3", "value": 23.8, "unit": "µM"}, {"measurement": "IC50", "setting": "BTK", "value": 19.2, "unit": "µM"}, {"measurement": "IC50", "setting": "CK2A2", "value": 25.5, "unit": "µM"}, {"measurement": "IC50", "setting": "IGF1R; first section of Table 4, read-out: LLE IGF1R (IC50)", "value": 17.6, "unit": "µM"}, {"measurement": "IC50", "setting": "IGF1R; second section of Table 4, read-out: LLE_IGF1R (IC50)", "value": 17.6, "unit": "µM"}, {"measurement": "inhibition at 50 µM", "setting": "ABL1", "value": 32.4, "unit": "%"}, {"measurement": "IC50", "setting": "JAK2", "value": 17.8, "unit": "µM"}, {"measurement": "IC50", "setting": "PIM1; first section of Table 4, read-out: LLE PIM1 (IC50)", "value": 33.8, "unit": "µM"}, {"measurement": "IC50", "setting": "PIM1; third section of Table 4, read-out: LLE_PIM1 (IC50)", "value": 33.8, "unit": "µM"}, {"measurement": "IC50", "setting": "Flt3", "value": 10.1, "unit": "µM"}]}
{"smiles": "Cc1nc(NCc2ccccn2)c2c(-c3ccccc3)cccc2n1", "note": "[Example 22]", "values": [{"measurement": "inhibition at 0.3 µM", "setting": "Kv 1.5", "value": 60.4, "unit": "%"}]}
{"smiles": "Nc1ccc(-c2nc(NCc3ccccn3)c3c(-c4ccccc4)cccc3n2)cn1", "note": "[Example 32]", "values": [{"measurement": "inhibition at 0.3 µM", "setting": "Kv 1.5", "value": 53.1, "unit": "%"}]}
{"smiles": "NS(=O)(=O)c1cncc(-c2nc(NCc3ccccn3)c3c(-c4ccccc4)cccc3n2)c1", "note": "[Example 7, 5-(5-Phenyl-4-(pyridin-2-ylmethylamino)quinazolin-2-yl)pyridine-3-sulfonamide]", "values": [{"measurement": "inhibition at 0.3 µM", "setting": "Kv 1.5", "value": 95.7, "unit": "%"}, {"measurement": "brain penetration", "setting": "[1]", "value": "surprisingly low degree of brain penetration across species"}, {"measurement": "IC50", "setting": "JAK2", "value": "≥ 50", "unit": "µM"}]}
{"smiles": "Fc1ccc(CNc2nc(-c3cncnc3)nc3cccc(-c4ccccc4)c23)nc1", "note": "[Example 111]", "values": [{"measurement": "inhibition at 0.3 µM", "setting": "Kv 1.5", "value": 61.5, "unit": "%"}]}
{"smiles": "COc1cccc(CNc2nc(Cl)nc3cccc(-c4ccccc4)c23)c1", "note": "[Example 134]", "values": [{"measurement": "inhibition at 0.3 µM", "setting": "Kv 1.5", "value": 98.4, "unit": "%"}]}
{"smiles": "c1ccc(-c2cccc3nc(-c4ccncc4)nc(NCc4ccccn4)c23)cc1", "note": "[Example 31]", "values": [{"measurement": "inhibition at 0.3 µM", "setting": "Kv 1.5", "value": 98.2, "unit": "%"}]}
{"smiles": "c1ccc(-c2cccc3nc(-c4cncnc4)nc(NCc4ccccn4)c23)cc1", "note": "[Example 1, 5-Phenyl-N-(pyridin-2-ylmethyl)-2-(pyrimidin-5-yl)quinazolin-4-amine]", "values": [{"measurement": "IC50", "setting": "JAK2", "value": 23.9, "unit": "µM"}, {"measurement": "IC50", "setting": "TAK1", "value": "≥ 50", "unit": "µM"}]}
{"smiles": "COc1cncc(-c2nc(NCc3ccccn3)c3c(-c4ccccc4)cccc3n2)c1", "note": "[Example 29]", "values": [{"measurement": "inhibition at 0.3 µM", "setting": "Kv 1.5", "value": 65.3, "unit": "%"}]}
{"smiles": "FC(F)(F)c1ccc(-c2cccc3nc(Cl)nc(NCc4ccccn4)c23)cc1", "note": "[Example 97]", "values": [{"measurement": "inhibition at 0.3 µM", "setting": "Kv 1.5", "value": 98.7, "unit": "%"}]}
{"smiles": "CC(Nc1nc(Cl)nc2cccc(-c3ccccc3)c12)c1ccccc1", "note": "(stereo not drawn) [Example 130]", "values": [{"measurement": "inhibition at 0.3 µM", "setting": "Kv 1.5", "value": 96.2, "unit": "%"}]}
{"smiles": "c1ccc(CNc2nc(-c3cncnc3)nc3cccc(-c4cccc(N5CCOCC5)c4)c23)nc1", "note": "[Example 107]", "values": [{"measurement": "inhibition at 0.3 µM", "setting": "Kv 1.5", "value": 50.3, "unit": "%"}]}
{"smiles": "COc1ccc(-c2nc(NCc3ccccn3)c3c(-c4ccccc4)cccc3n2)cn1", "note": "[Example 105]", "values": [{"measurement": "inhibition at 0.3 µM", "setting": "Kv 1.5", "value": 98.7, "unit": "%"}]}
{"smiles": "c1ccc(-c2nc(NCc3ccccn3)c3c(-c4ccccc4)cccc3n2)cc1", "note": "[Example 50]", "values": [{"measurement": "inhibition at 0.3 µM", "setting": "Kv 1.5", "value": 96.1, "unit": "%"}]}
{"smiles": "c1ccc(CNc2nc(-c3cncnc3)nc3cccc(-c4ccccc4)c23)cc1", "note": "[Example 40]", "values": [{"measurement": "inhibition at 0.3 µM", "setting": "Kv 1.5", "value": 59.8, "unit": "%"}]}
{"smiles": "c1ccc(-c2cccc3nc(-c4ccc5cc[nH]c5c4)nc(NCc4ccccn4)c23)cc1", "note": "[Example 46]", "values": [{"measurement": "inhibition at 0.3 µM", "setting": "Kv 1.5", "value": 98.7, "unit": "%"}]}
{"smiles": "CN(C)c1ccc(-c2cccc3nc(Cl)nc(NCc4ccccn4)c23)cc1", "note": "[Example 108]", "values": [{"measurement": "inhibition at 0.3 µM", "setting": "Kv 1.5", "value": 98.1, "unit": "%"}]}
{"smiles": "FC(F)(F)c1ccccc1CNc1nc(Cl)nc2cccc(-c3ccccc3)c12", "note": "[Example 137]", "values": [{"measurement": "inhibition at 0.3 µM", "setting": "Kv 1.5", "value": 55.6, "unit": "%"}]}
